Laboratory results published in PMC11180795 (Frontiers in Pharmacology, 2024).

What was measured:
Assay type in all cases: cell-based, Murine
IFN-γ = experiment: Th1/Th2 cytokine measurement (Cytometric Bead Array) in LPS-stimulated Raw 264.7 cells, IFN-γ; settings: compound at 20 µM; for effect on IFN-γ production (in words): vs stimulated and untreated control
Procedure: (§1) Raw 264.7 cells were seeded at 2 × 10^5 cells/mL in a 48-well microplate and allowed to adhere for 24 h, then treated with LPS 0.1 μg/mL and with compounds (1), (5) and (6) at 20 µM. Untreated cells and indomethacin (10 µM) were used as controls. After 24 h of incubation, the supernatant was collected and the amount of pro-inflammatory Th1 cytokines (IFN-γ, TNF-α, and IL-2) and anti-inflammatory Th2 cytokines (IL-4, IL-6, and IL-10) released measured. The experiment was performed according to the manufacturer’s instructions using BD™ Cytometric Bead Array (CBA) […] Th1/Th2 Cytokine Kit (BD-Biosciences), and data were acquired on a BD LSR Fortessa™ cell analyzer flow cytometer.

COX-2 = target: T1, COX-2 (Mus musculus, UniProt Q05769); experiment: Fluorometric COX activity assay in lysate of LPS-treated Raw 264.7 cells, COX-2; settings: compound at 20 µM, LPS 0.1 μg/mL, 24 h; untreated control 99.85 µU/mg
T1 construct: The cell lysate was centrifuged at 12000 x g for 3 min and the supernatant was collected for COX activity assay; endogenous in cells
T1 sequence (Q05769 18-604): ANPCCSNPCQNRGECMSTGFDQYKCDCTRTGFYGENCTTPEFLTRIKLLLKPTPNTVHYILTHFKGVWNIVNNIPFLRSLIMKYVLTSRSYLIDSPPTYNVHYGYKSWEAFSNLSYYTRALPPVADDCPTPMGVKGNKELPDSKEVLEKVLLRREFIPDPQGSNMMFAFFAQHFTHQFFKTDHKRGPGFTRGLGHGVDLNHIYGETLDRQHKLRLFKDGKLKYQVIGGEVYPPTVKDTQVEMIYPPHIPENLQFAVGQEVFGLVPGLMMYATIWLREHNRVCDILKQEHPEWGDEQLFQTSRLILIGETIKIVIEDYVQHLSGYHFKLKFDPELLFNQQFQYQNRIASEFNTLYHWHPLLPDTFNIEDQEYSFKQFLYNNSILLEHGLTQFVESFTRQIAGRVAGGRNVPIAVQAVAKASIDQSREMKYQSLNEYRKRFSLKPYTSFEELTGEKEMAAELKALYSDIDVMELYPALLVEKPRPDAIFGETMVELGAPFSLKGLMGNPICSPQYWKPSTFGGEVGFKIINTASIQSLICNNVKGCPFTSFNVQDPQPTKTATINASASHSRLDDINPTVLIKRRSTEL
Procedure: The fluorometric cyclooxygenase activity assay kit (Biovision) was used to evaluate the activity of COX-1 and COX-2 enzymes. Raw 264.7 cells were seeded at 2 × 10^5 cells/mL in a 48-well microplate, and allowed to adhere for 24 h, then treated with LPS 0.1 μg/mL and compounds (1), (5) and (6) at 20 µM against Raw 264.7 cells. After 24 h the cyclooxygenase enzyme (COX-1 and COX-2) activity assay was performed. Cells were detached with TNE buffer (Tris 40 mM, NaCl 150 mM, EDTA 1 mM) and washed with PBS (1x), then re-suspended in 1 mL PBS (1x), transferred into 1.5 mL tube, and centrifuged at 500 x g for 3 min. The pellet was then re-suspended in 0.5 mL of lysis buffer with a protease inhibitor cocktail, vortexed, and incubated at 4°C for 5 min. The cell lysate was centrifuged at 12000 x g for 3 min and the supernatant was collected for COX activity assay. The COX activity was assessed using the fluorometric cyclooxygenase activity assay kit (Biovision) following the manufacturer’s instructions. The assay includes COX-1 and COX-2 specific inhibitors to differentiate the activity of COX-1 and COX-2 as well as other peroxidases. Indomethacin (10 µM) was used as a standard drug and appropriate controls were also included.

IL-4 = experiment: Th1/Th2 cytokine measurement (Cytometric Bead Array) in LPS-stimulated Raw 264.7 cells, IL-4; settings: compound at 20 µM, LPS 0.1 μg/mL, 24 h; stimulated untreated control 1.01 pg/mL
Procedure: as §1

[1] = test system: NO production in LPS-activated RAW 264.7 macrophages; experiment: Inhibition of nitric oxide (NO) production in LPS-activated RAW 264.7 macrophages (Griess reagent); settings: for amount of NO produced: compound at 25 µM, LPS 1 μg/mL, 24 h, untreated and stimulated control 6.08 µM
Procedure: Murine macrophage RAW 264.7 cell line obtained from the American Type Culture Collection (Rockville, MD, United States) was maintained in DMEM supplemented with 10% fetal calf serum (FCS) and 1% penicillin/streptomycin/fungizone (PSF) under standard cell culture conditions at 37°C and 5% CO2 in a humidified environment. The RAW 264.7 macrophage cells were seeded in 96 well-microtitre plates (2 × 10^5 cells/mL). They were activated by incubation in a medium containing 1 μg/mL LPS alone (control) or lipopolysaccharide, and compounds at concentration of 3.12 µM, 6.25 µM, 12.5 µM and 25 µM dissolved in DMSO. […] After 24h, the amount of nitric oxide released from macrophages was determined using the Griess reagent as previously described ([Dzoyem and Eloff, 2015]).

[2] = Cytotoxicity MTT assay on RAW 264.7 cells; settings: mouse, RAW 264.7 macrophage cells, 48 h incubation, read-out: IC50, cytotoxic effect on RAW264.7 cells
Procedure: Murine macrophage RAW 264.7 cell line obtained from the American Type Culture Collection (Rockville, MD, United States) was maintained in DMEM supplemented with 10% fetal calf serum (FCS) and 1% penicillin/streptomycin/fungizone (PSF) under standard cell culture conditions at 37°C and 5% CO2 in a humidified environment.
The cytotoxic effect of compounds on RAW 264.7 cells was assessed using the 3-(4, 5-dimethylthiazol-2-yl)-2, 5-diphenyl tetrazolium bromide (MTT) assay as established by Mosmann ([Mosmann, 1983]) with slight modifications. Briefly, cells were seeded at a density of 1 × 10^5 cells/mL (100 µL) in 96-well microtitre plates and incubated at 37°C and 5% CO2 in a humidified environment. After 24 h incubation, 100 µL of compounds (at concentration ranged from to 250 μM–1.95 µM) were added to the wells containing cells and further incubated for 48 h in a CO2 incubator. A suitable control (untreated cells) was included and doxorubicin was used as a positive reference. Thereafter, the medium in each well was aspirated from the cells, which were then washed with PBS, and finally fresh medium (200 µL) was added to each well. Then, 30 µL of MTT (5 mg/mL in PBS) was added to each well and the plates were incubated at 37°C for 4 h. The medium was aspirated from the wells and DMSO was added to solubilize the formed formazan crystals. The absorbance was read at 570 nm (SpectraMax 190, Molecular devices). The percentage of cell inhibition was calculated with reference to the control (untreated cells taken as 100% viability). Then, the IC50 values of plant compounds showing more than 50% cell growth inhibition were calculated by plotting the percentage inhibition against the concentration.

Row | COX-2 activity (COX-2) | SMILES | effect on IFN-γ production (in words) (IFN-γ) | IL-4 level (IL-4) | amount of NO produced [1] | IC50 at 48 h [2] | IFN-γ level (IFN-γ; LPS 0.1 μg/mL, 24 h, stimulated untreated control 0.84 pg/mL) | inhibitory effect on NO production at the highest concentration (in words) ([1]; 25 µM, LPS-stimulated RAW 264.7)
1 | 88.10 µU/mg | CC(C)=CCC/C(C)=C/C[C@]12C[C@@H](CC=C(C)C)C(C)(C)[C@](C/C=C(\C)CCC=C(C)C)(C(=O)C(C(=O)c3ccc(O)c(O)c3)=C1O)C2=O [Compound 5, Guttiferone O] | significantly reduces | 2.25 pg/mL | 0.3 µM | 64.5 µM | – | –
2 | 43.84 µU/mg | CC(C)=CCC/C(C)=C/C[C@]12C[C@@H](CC=C(C)C)C(C)(C)[C@](CC=C(C)C)(C(=O)C(C(=O)c3ccc(O)c(O)c3)=C1O)C2=O [Compound 6, Guttiferone M] | moderate decrease | 0.94 pg/mL | 0.54 µM | 61.2 µM | – | –
3 | 59.33 µU/mg | CC(C)=CCc1c2c(c3oc4c(O)cccc4c(=O)c3c1O)C=CC(C)(C)O2 [Compound 1, Ananixanthone] | – | 1.23 pg/mL | – | > 100 µM | 0.43 pg/mL | remarkable inhibitory effect
